Converted amounts (≈) assume the structure as drawn. Like-named read-outs stand apart in the source and are kept apart here.
Legend:
Bacillus anthracis = assay type: cell-based
[1] = system: Streptococcus pneumoniae ATCC 6301 (UNT012-2); test: Immunocompetent mouse pneumonia model; assay type: in vivo
Experimental: The compound of Formula (II) was then evaluated against Streptococcus pneumoniae in an immunocompetent mouse pneumonia model to determine the compound's potential to treat acute respiratory infections. Briefly, CD-1 mice were infected intranasally with Streptococcus pneumoniae ATCC 6301 (UNT012-2) (1.5×10^6 CFU/mouse). The compound was delivered intravenously at 24 and 36 hours post-infection, and at doses ranging from 0.5 to 10 mg/kg/dose. At 48 hours post infection, treated mice were euthanized, lungs aseptically removed and processed for CFU titers

CYP2D6 = CYP2D6 (Homo sapiens (Human), UniProt P10635); test: in vitro; conditions: liver microsomes, pH 7.4
Sequence of CYP2D6 (P10635 whole entry, looked up): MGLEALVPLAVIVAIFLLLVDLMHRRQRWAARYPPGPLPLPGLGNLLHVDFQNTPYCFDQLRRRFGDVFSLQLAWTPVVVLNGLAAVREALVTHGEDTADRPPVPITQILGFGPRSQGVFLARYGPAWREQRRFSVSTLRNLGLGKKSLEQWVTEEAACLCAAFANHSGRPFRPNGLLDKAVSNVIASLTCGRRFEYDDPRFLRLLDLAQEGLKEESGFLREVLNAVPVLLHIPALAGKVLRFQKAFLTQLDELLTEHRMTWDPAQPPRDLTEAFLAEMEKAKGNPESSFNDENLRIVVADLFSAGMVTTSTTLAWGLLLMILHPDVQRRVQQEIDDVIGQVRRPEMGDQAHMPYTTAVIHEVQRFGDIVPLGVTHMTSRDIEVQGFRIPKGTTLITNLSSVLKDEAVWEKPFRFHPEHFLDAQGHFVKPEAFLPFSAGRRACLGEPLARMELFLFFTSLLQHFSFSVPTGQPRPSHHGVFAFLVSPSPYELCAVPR

Compound: C[C@H]1c2cccc(O)c2C(=O)C2=C(O)[C@]3(O)C(=O)C(C(N)=O)=C(O)[C@@H](N(C)C)[C@@H]3[C@@H](O)[C@@H]21 [Doxycycline]
- MIC (Bacillus anthracis; B. anthracis NR-36): 0.06 µg/mL (≈ 0.135 µM)
- MIC (Bacillus anthracis; B. anthracis NR-38): 0.125 µg/mL (≈ 0.281 µM)
- MIC (Bacillus anthracis; B. anthracis NR-41): 0.06 µg/mL (≈ 0.135 µM)
- MIC (Bacillus anthracis; B. anthracis NR-46): 0.125 µg/mL (≈ 0.281 µM)
- MIC (Bacillus anthracis; B. anthracis NR-411): 0.125 µg/mL (≈ 0.281 µM)
- MIC (Bacillus anthracis; B. anthracis NR-412): 0.03 µg/mL (≈ 0.0675 µM)
- MIC (Bacillus anthracis; B. anthracis NR-413): 0.06 µg/mL (≈ 0.135 µM)
- MIC (Bacillus anthracis; B. anthracis NR-414): 0.125 µg/mL (≈ 0.281 µM)
- MIC (Bacillus anthracis; B. anthracis NR-415): 0.06 µg/mL (≈ 0.135 µM)
- MIC (Bacillus anthracis; B. anthracis NR-3838): 0.06 µg/mL (≈ 0.135 µM)

Compound: CC1(C)S[C@@H]2[C@H](NC(=O)[C@H](N)c3ccc(O)cc3)C(=O)N2[C@H]1C(=O)O [Amoxicillin]
- Log10 change from 24 hrs ([1]; 10 mg/kg/dose): −3.98 Log10
- Log10 change from 48 hrs ([1]; 10 mg/kg/dose): −5.83 Log10
- Mean Log10 CFU ([1]; 10 mg/kg/dose IV at 24 and 36 hours post-infection, lungs at 48 hours): 2.78 Log10 CFU

Compound: C=C[C@H]1C[N@@]2CC[C@H]1C[C@@H]2[C@@H](O)c1ccnc2ccc(OC)cc12 [Quinidine]
- inhibition at 10 min, 0.1 µM (CYP2D6): 60.6%
- inhibition at 10 min, 1 µM (CYP2D6): 91.7%
